PubChem BioAssay AID1845207 (Molecular Pharmacology Branch, DTP, NCI, 2023)
Several values for one entry are separate records, joined by “and”; a condition that tells them apart may be missing. Equal entries are not always repeated.

Test system: NCI-H1876 tumor spheroid viability
Assay: Anticancer human tumor NCI-H1876 cell line growth inhibition;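 also: spheroids exposed to compounds for seven days before the viability read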;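 as to viability, T/C: percent of DMSO vehicle control viability so 100% = vehicle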
Details: spheroids with HUVEC and MSC; for viability, T/C: stronger effect = lower value
From the text: Multicellular complex tumor spheroid response to DNA repair inhibitors in combination with DNA-damaging drugs
This study explores the anticancer activities of DNA-damaging drugs and inhibitors of DNA damage repair, both as single agents and in combinations. Complex tumor spheroids comprised of malignant cells, endothelial cells and mesenchymal stem cells served as an in vitro model for human solid tumors. This model system incorporates physiologically relevant features and patient-derived or established malignant cell lines with clinically relevant genetic alterations from many tumor types. Twenty-six patient-derived or established malignant cell lines were evaluated representing sarcoma, melanoma, small cell lung cancer (SCLC), non-small cell lung cancer (NSCLC), as well as bladder, ovarian and pancreatic cancers. The concentration ranges selected for each drug and investigational agent were based upon clinically achievable concentrations if the clinical Cmax of the agent was known.
Compounds. The drugs and compounds olaparib (NSC753686), talazoparib (NSC767125), berzosertib (NSC777718), elimusertib (NSC800525), nedisertib (NSC802822), VX-984 (NSC792969), AZD-1390 (NSC803789), temozolomide (NSC362856), topotecan (NSC609699), trabectedin (NSC813783), staurosporine (NSC755774), and gemcitabine (NSC613327) were obtained from the National Cancer Institute (NCI) Developmental Therapeutics Program Chemical Repository. The FDA-approved anticancer drug set is available from the Developmental Therapeutics Program at https://dtp.cancer.gov/organization/dscb/obtaining/available_plates.htm. […] The stock solutions were prepared in dimethyl sulfoxide (DMSO, Sigma-Aldrich, St. Louis, MO, cat. D2650) at 400-fold the tested concentration and stored at -70 degrees C. Prior to their use, the stock solutions were diluted in fresh medium and the final DMSO concentration in the assay was 0.25% (v/v). All drugs and investigational agents were tested over a range starting from a high concentration at or near the clinical Cmax and decreasing in half-log increments. If the clinical Cmax for an agent had not been determined, the highest concentration tested was 10 microM.
Cell Lines. The patient-derived cancer cell (PDC) lines: 156681-154-R-J1-PDC, 283228-195-R-J1-PDC, 287954-098-R-J1-PDC, 292921-168-R-J2-PDC, 349418-098-R-PDC, 425362-245-T-J1-PDC, 556581-035-R-J1-PDC, and BL0293-F563-PDC were received from the NCI Patient-Derived Models Repository (PDMR, https://pdmr.cancer.gov). The established cell lines HS-SY-2 (RRID:CVCL_8719), MPNST, and SYO-1 (RRID:CVCL_7146) were obtained from the Sloan Kettering Institute. The alveolar soft parts sarcoma cell line ASPS-1 (RRID:CVCL_S738) was established at the NCI and grown from internal seed stocks. The following established cell lines were purchased from the American Type Culture Collection (ATCC, Manassas, VA): G-401 (ATCC, cat. CRL-1441, RRID:CVCL_0270), SW982 (ATCC, cat. HTB-93, RRID:CVCL_1734), VA-ES-BJ (ATCC, cat. CRL-2138, RRID:CVCL_1785), NCI-H719 (ATCC, cat. CRL-5837, RRID:CVCL_1582), NCI-H196 (ATCC, cat. CRL-5823, RRID:CVCL_1509), NCI-H841 (ATCC, cat. CRL-5845, RRID:CVCL_1595), NCI-H1618 (ATCC, cat. CRL-5879, RRID:CVCL_1480), NCI-H1876 (ATCC, cat. CRL-5902, RRID:CVCL_1503), DMS 114 (ATCC, cat. CRL-2066; RRID:CVCL_1174), NCI-H211 (ATCC, cat. CRL-5824; RRID:CVCL_1529), and SW 1271 (ATCC, cat. CRL-2177, RRID:CVCL_1716). The small cell lung cancer cell line COR-L88 was purchased from Sigma-Aldrich (cat. 92031917-1VL, RRID:CVCL_1141). The non-small cell lung cancer cell lines NCI-H226 (RRID:CVCL_1544) and NCI-H322M (RRID:CVCL_1557) were established at the NCI and grown from internal seed stocks. Pooled donor human umbilical vein endothelial cells (HUVEC, Lonza, cat. CC-2519) and human mesenchymal stem cells (hMSC, Lonza, cat. PT-2501) were purchased from Lonza (Walkersville, MD).
Cell Culture. All cells were maintained in an incubator at 37 degrees C and 5% CO2 with 95% humidity. […]

COc1cc(C)[nH]c(=O)c1CN1CCc2c(Cl)cc(C(OC)C3COC3)c(Cl)c2C1=O (configuration not stated) + CC[C@@]1(O)C(=O)OCc2c1cc1n(c2=O)Cc2cc3c(CN(C)C)c(O)ccc3nc2-1
IC50 (curve of first compound, second compound 0.003 µM): > 10000 nM
IC50 (curve of first compound, second compound 0.00949 µM): < 31.6 nM
IC50 (curve of first compound, second compound 0.03 µM): < 31.6 nM
IC50 (curve of first compound, second compound 0.0949 µM): < 31.6 nM
IC50 (curve of first compound, second compound 0.3 µM): < 31.6 nM
viability, T/C (second compound 0.003 µM, first compound 0.0316 µM): 92.3%
viability, T/C (second compound 0.003 µM, first compound 0.1 µM): 88.3%
viability, T/C (second compound 0.003 µM, first compound 0.316 µM): 82.6%
viability, T/C (second compound 0.003 µM, first compound 1 µM): 79.3%
viability, T/C (second compound 0.003 µM, first compound 3.16 µM): 80.6%
viability, T/C (second compound 0.003 µM, first compound 10 µM): 73.7%
viability, T/C (second compound 0.00949 µM, first compound 0.0316 µM): 32.3%
viability, T/C (second compound 0.00949 µM, first compound 0.1 µM): 19.7%
viability, T/C (second compound 0.00949 µM, first compound 0.316 µM): 19.2%
viability, T/C (second compound 0.00949 µM, first compound 1 µM): 19.4%
viability, T/C (second compound 0.00949 µM, first compound 3.16 µM): 17.3%
viability, T/C (second compound 0.00949 µM, first compound 10 µM): 18.6%
viability, T/C (second compound 0.03 µM, first compound 0.0316 µM): 3.49%
viability, T/C (second compound 0.03 µM, first compound 0.1 µM): 3.03%
viability, T/C (second compound 0.03 µM, first compound 0.316 µM): 3.24%
viability, T/C (second compound 0.03 µM, first compound 1 µM): 2.91%
viability, T/C (second compound 0.03 µM, first compound 3.16 µM): 3.73%
viability, T/C (second compound 0.03 µM, first compound 10 µM): 3.6%
viability, T/C (second compound 0.0949 µM, first compound 0.0316 µM): 2.58%
viability, T/C (second compound 0.0949 µM, first compound 0.1 µM): 2.48%
viability, T/C (second compound 0.0949 µM, first compound 0.316 µM): 2.58%
viability, T/C (second compound 0.0949 µM, first compound 1 µM): 2.45%
viability, T/C (second compound 0.0949 µM, first compound 3.16 µM): 2.45%
viability, T/C (second compound 0.0949 µM, first compound 10 µM): 3.12%
viability, T/C (second compound 0.3 µM, first compound 0.0316 µM): 2.06%
viability, T/C (second compound 0.3 µM, first compound 0.1 µM): 2.39%
viability, T/C (second compound 0.3 µM, first compound 0.316 µM): 2.29%
viability, T/C (second compound 0.3 µM, first compound 1 µM): 1.79%
viability, T/C (second compound 0.3 µM, first compound 3.16 µM): 2.16%
viability, T/C (second compound 0.3 µM, first compound 10 µM): 2.06%

CC1COCCN1c1cc(-c2ccnn2C)c2ccnc(-c3ccn[nH]3)c2n1 (configuration not stated)
viability, T/C (compound 0.0316 µM): 54% and 61.9% and 73.3%
viability, T/C (compound 0.1 µM): 32.2% and 41.5% and 41.2%
viability, T/C (compound 0.316 µM): 18.1% and 48.3% and 20.1%
viability, T/C (compound 1 µM): 6.97% and 20% and 7.21%
viability, T/C (compound 3.16 µM): 3.09% and 11.9% and 3.22%
viability, T/C (compound 10 µM): 2.37% and 7.33% and 2.52%
IC50 (curve of compound): 39.1 nM and 121 nM and 73.6 nM
